Columns and labels:
NCI-H1975 [1] = experiment: Cell cycle arrest in human NCI-H1975 cells assessed as accumulation at G2/M phase at 40 uM after 24 hrs by propidium iodide staining-based flow cytometric analysis (reference value: 20.11%); assay type: functional
NCI-H460 = experiment: Antiproliferative activity against human H460 cells after 72 hrs by MTT assay; assay type: functional, cell-based; conditions: NCI-H460, 72 h
Mus musculus [2] = experiment: Toxicity in Balb/c mouse implanted with mouse C26 cells assessed as mouse death at 100 mg/kg, po qd treated for 10 days; assay type: organism-based; conditions: in vivo, 240 h
NCI-H1975 [3] = experiment: Antitumor activity against human NCI-H1975 cells xenografted in Balb/c mouse assessed as change in tumor mass at 100 mg/kg, po qd treated for 18 days and measured every 2 days after compound dosing relative to control; assay type: functional
NCI-H1975 [4] = experiment: Induction of apoptosis in human NCI-H1975 cells assessed as late apoptotic cells at 40 uM after 48 hrs by annexin V/FITC-propidium iodide staining-based flow cytometric method ( Rvb = 10.4%); assay type: functional
NCI-H1975 [5] = experiment: Cell cycle arrest in human NCI-H1975 cells assessed as accumulation at G0/G1 phase at 40 uM after 24 hrs by propidium iodide staining-based flow cytometric analysis (reference value: 56.11%); assay type: functional
NCI-H1975 [6] = experiment: Cell cycle arrest in human NCI-H1975 cells assessed as accumulation at S phase at 40 uM after 24 hrs by propidium iodide staining-based flow cytometric analysis (reference value: 22.93%); assay type: functional
PC-9 = experiment: Antiproliferative activity against human PC9 cells after 72 hrs by MTT assay; assay type: functional, cell-based; conditions: PC-9, 72 h
HCC827 = experiment: Antiproliferative activity against human HCC827 cells after 72 hrs by MTT assay; assay type: functional, cell-based; conditions: HCC827, 72 h
Mus musculus [7] = experiment: Toxicity in Balb/c mouse xenografted with human NCI-H1975 cells assessed as change in body weight at 100 mg/kg, po qd treated for 18 days and measured every 2 days after compound dosing ( Rvb = 2.89%); assay type: organism-based; conditions: in vivo
Mus musculus [8] = experiment: Toxicity in Balb/c mouse implanted with mouse C26 cells assessed as change in body weight at 100 mg/kg, po qd treated for 10 days and measured every 2 days (RVB = 16.4%); assay type: organism-based; conditions: in vivo
NCI-H1650 = experiment: Antiproliferative activity against human NCI-H1650 cells after 72 hrs by MTT assay; assay type: functional, cell-based; conditions: NCI-H1650, 72 h
[9] = Apparent aqueous solubility of the compound by HPLC analysis; assay type: physicochemical; conditions: aqueous solution
NCI-H1975 [10] = experiment: Antiproliferative activity against human NCI-H1975 cells after 72 hrs by MTT assay; assay type: functional, cell-based; conditions: NCI-H1975, 72 h
Mus musculus [11] = experiment: Toxicity in Balb/c mouse xenografted with human NCI-H1975 cells assessed as change in body weight at 20 mg/kg, iv treated every 2 days for 9 days and measured every 2 days after compound dosing ( Rvb = 2.89%); assay type: organism-based; conditions: in vivo
NCI-H1975 [12] = experiment: Induction of apoptosis in human NCI-H1975 cells assessed as necrotic cells at 40 uM after 48 hrs by annexin V/FITC-propidium iodide staining-based flow cytometric method ( Rvb = 1.01%); assay type: functional
Mus musculus [13] = experiment: Toxicity in Balb/c mouse xenografted with human NCI-H1975 cells assessed as mouse death at 100 mg/kg, po qd treated for 18 days and measured every 2 days after compound dosing; assay type: organism-based; conditions: in vivo
NCI-H1975 [14] = experiment: Induction of apoptosis in human NCI-H1975 cells assessed as viable cells at 40 uM after 48 hrs by annexin V/FITC-propidium iodide staining-based flow cytometric method ( Rvb = 82.5%); assay type: functional; conditions: NCI-H1975, 48 h, read-out: Activity
NCI-H1975 [15] = experiment: Antitumor activity against human NCI-H1975 cells xenografted in Balb/c mouse assessed as change in tumor mass at 20 mg/kg, iv treated every 2 days for 9 days and measured every 2 days after compound dosing relative to control; assay type: functional
NCI-H1975 [16] = experiment: Induction of apoptosis in human NCI-H1975 cells assessed as early apoptotic cells at 40 uM after 48 hrs by annexin V/FITC-propidium iodide staining-based flow cytometric method ( Rvb = 6.09%); assay type: functional
Mus musculus [17] = experiment: Toxicity in Balb/c mouse xenografted with human NCI-H1975 cells assessed as mouse death at 20 mg/kg, iv treated every 2 days for 9 days and measured every 2 days after compound dosing; assay type: organism-based; conditions: in vivo
NCI-H358 = experiment: Antiproliferative activity against human NCI-H358 cells after 72 hrs by MTT assay; assay type: functional, cell-based; conditions: NCI-H358, 72 h
NCI-H441 = experiment: Antiproliferative activity against human H441 cells after 72 hrs by MTT assay; assay type: functional, cell-based; conditions: NCI-H441, 72 h
[18] = Antitumor activity against mouse C26 cells implanted in Balb/c mouse assessed as tumor growth inhibition at 100 mg/kg, po qd and measured every 2 days relative to control; assay type: functional; conditions: 48 h, read-out: TGI
[19] = Antiproliferative activity against human SPC-A1 cells after 72 hrs by MTT assay; assay type: functional, cell-based; conditions: SPCA1, 72 h

## C=CCc1ccc(O)c(-c2ccc(O)c(CC=C)c2)c1 [HONOKIOL]
NCI-H1975 [1]
  Activity: 18.55%
NCI-H460
  IC50: 38.5 µM
Mus musculus [2]
  Activity: Non-Toxic
NCI-H1975 [3]
  Activity: 11.8%
NCI-H1975 [4]
  Activity: 7.97%
NCI-H1975 [5]
  Activity: 67.42%
NCI-H1975 [6]
  Activity: 6.54%
PC-9
  IC50: 36.7 µM
HCC827
  IC50: 33.9 µM
Mus musculus [7]
  Activity: 1.38%
Mus musculus [8]
  Activity: 6.92%
NCI-H1650
  IC50: 37.4 µM
[9]
  solubility: < 10 µg/mL
NCI-H1975 [10]
  IC50: 30.2 µM
Mus musculus [11]
  Activity: 6.1%
NCI-H1975 [12]
  Activity: 0.87%
Mus musculus [13]
  Activity: Non-Toxic
NCI-H1975 [14]
  viability at 40 µM: 47.4%
NCI-H1975 [15]
  Activity: 73%
NCI-H1975 [16]
  Activity: 43.8%
Mus musculus [17]
  Activity: Non-Toxic
NCI-H358
  IC50: 31.6 µM
NCI-H441
  IC50: 33.3 µM
[18]
  inhibition in vivo at 100 mg/kg: 16.7%
[19]
  IC50: 39 µM

Source: ChEMBL document CHEMBL4152332, “Discovery and synthesis of novel magnolol derivatives with potent anticancer activity in non-small cell lung cancer” (Eur J Med Chem, 2018)
